“And” between values parts separate entries of the source, which are not always exact repeats. Equal entries are not always repeated. Where two headings read alike, the source gives them in different places. Where only a bound is given, the exact number is not on record here.

One series concerns Vero host cells. Briefly: cytotoxicity against host cells in intracellular amastigote assay. It counts as cell-based. The note with it: Chlorocebus sabaeus, Vero, host cell cytotoxicity.
In a further series the target is T. cruzi CYP51 (Trypanosoma cruzi, UniProt Q7Z1V1). As to the kind of experiment: T. cruzi CYP51 biochemical assay.
Series [1] can be described thus: chromatographic LogD assay. Format: physicochemical. To be noted: reversed phase HPLC column (Gemini NX C18), pH 7.4; read-out: Chrom logD pH 7.4. As to the method: The chromatographic hydrophobicity index (CHI) values were measured using reversed phase HPLC column (50 mm × 2 mm, 3 μm Gemini NX C18, Phenomenex, U.K.) with fast acetonitrile gradient at starting mobile phase at pH 7.4. CHI values were derived directly from the gradient retention times by using a calibration line obtained for standard compounds. The CHI value approximates to the volume % organic concentration when the compound elutes. CHI was linearly transformed into ChromlogD by least-squares fitting of experimental CHI values to calculated log P (ClogP) values for over 20K research compounds using the following formula: ChromlogD = 0.0857CHI − 2.00. The average error of the assay is ±3 CHI units or ± 0.25 ChromlogD.

Series [2] is described as follows: intrinsic clearance in human liver microsomes. To be noted: for half-life at 0.5 μM: read-out: T 1/2 human. Format: in vitro ADME. The method, then: Immediately at time zero and at several serial times points up to 30 min, an aliquot of the incubation mixture was removed and mixed with acetonitrile to stop the reaction. Internal standard was added to all samples, the samples centrifuged to sediment precipitated protein and the plates then sealed prior to HPLC-MS/MS analysis. Metabolic stability expressed as a percentage of the parent molecule was calculated using the peak area ratio (compound peak area/internal standard peak area) of different compounds remaining after each incubation time compared to time zero of the incubation. The half-life (t1/2) was calculated using the following equation: t1/2=−ln(2)/k, where k is the turn-over rate constant of the ln (percent remaining) vs time regression.
CLint was calculated from the half-life (t1/2) using the following equations:
CLint (ml/min/g liver) = (0.693/(t1/2) x (ml of incubation/mg microsomal protein) x (mg microsomal protein/g liver).

The test system of series [3] is chronic T. cruzi infection (CL Brener) in BALB/c mice. Briefly: bioluminescent mouse model of chronic Chagas disease. Format: in vivo, Trypanosoma cruzi. As to the method:
Compound 2 was evaluated in a bioluminescent mouse model of Chagas disease designed to mimic chronic infections. This model successfully differentiates the clinically used drugs from the clinically invalidated CYP51 inhibitors ([21]). Key features of this model include immunosuppression of mice following cessation of treatment to allow detection of parasite relapses, and ex vivo bioluminescence imaging that allows tissue-specific visualization of parasites. Treatments are considered efficacious if there is no evidence of bioluminescence during in vivo (mouse) and ex vivo (organ/tissue) imaging following immunosuppression ([38]). Under these experimental conditions, compound 2 was able to prevent parasite relapse in 2 of the 6 mice treated orally twice daily for 10 days at 50 mg/kg (Table S1). Increasing the dose to 100 mg/kg or extending treatment duration to 21 days provided similar partial efficacy rates.
Experiments followed a similar protocol to that described in ([21]). All animals were female (BALB/cAnNCrlC mice, 6-8 weeks old, strain code: 028, supplier: Charles River (UK)). We have previously shown that there are no differences in the bioluminescence profiles between infected males and females ([77]). Animals were maintained under specific pathogen-free conditions in individually ventilated cages. They experienced a 12-hour light/dark cycle, with access to food and water ad libitum. Mice were randomly selected and distributed into cages on arrival day by a Named Animal Care and Welfare Officer (NACWO), at LSHTM biological service facility (BSF). For efficacy experiments animals were randomly selected from the cages and ear/tail tagged on the infection day, starting from number 1. The same mouse ID was kept until the experimental endpoint. Mice were infected by i.p injection with 1x10^3 trypomastigotes derived from SCID mouse blood ([67]). To confirm infection, mice were imaged around the peak of parasite load. […] Treatment initiated in the chronic stage of infection ranging between 90 and 127 days post-infection. Drugs were administered by oral gavage (~200 μl), and vehicle only (0.5% w/v hydroxypropylmethylcellulose with 0.4% v/v Tween 80 and 0.5% v/v benzyl alcohol) was administered to control mice. Total number of animals for each study arm is shown in the relevant figures. To detect residual infection, mice were immunosuppressed using cyclophosphamide (at 200 mg/kg) by ip injection every 4 days for a maximum of three doses. For in vivo imaging, mice were injected ip with 150 mg/kg D-luciferin in Dulbecco’s Ca^2+/Mg^2+-free PBS, then anaesthetized using 2.5% (v/v) isofluorane in oxygen. Images were obtained using an IVIS Lumina II system (Caliper Life Science) 10−20 min after D-luciferin administration. The detection threshold was established from uninfected mice. Organs/tissue samples were assessed by ex vivo imaging as described previously ([21]). The limit of detection in this system is less than 20 parasites ([29]).

Series [4] concerns intracellular T. cruzi Silvio X10/7 A1 in Vero cells. As to the kind of experiment: washout outgrowth assay. The note with it: for relapse day after the end of treatment: 50× EC50 for five days. It counts as cell-based, Trypanosoma cruzi. As to the method:
Washout outgrowth assay: Vero cells were infected overnight in T600 flasks at a multiplicity of infection (MOI) 5 with T. cruzi Silvio X10/7 A1 trypomastigotes, followed by washing of the Vero monolayer to remove free trypomastigotes. 24 hours later the monolayer was trypsinised, 5.3 x 10^6 Vero cells were plated in T75 tissue culture flasks (in 20 ml MEM-Glutamax (ThermoFisher), 1% Fetal Calf Serum (FCS)), and treatment was started. For ten-day treatments, medium with compounds was replaced after the initial 5 days. For 16 day treatments the compounds were replaced every four days. For compound washout, all medium was aspirated, and flasks were washed three times with 10 ml serum-free MEM medium followed by a final aspiration and addition of 20 ml MEM-Glutamax (ThermoFisher) supplemented with 1% FCS. The cultures were then maintained until trypomastigotes were detected by light microscopy. Medium was replaced twice weekly and prior to each medium replacement microscopic evaluation was carried out (five fields per flask) for up to 60 days post washout. Robustness of the data was confirmed by profiling multiple compounds from the pyrrolopyrimidine series in a single experiment (compounds 2,3 and 4 in Fig. 2 and Fig. S17) as well as comparing results from independent experiments (compound 2 in Fig. 2, Fig. S5 and Fig. S7).

Setting [5] is: read-out: Vero pEC50 (converted).

T. cruzi CYP51, sequence (Q7Z1V1 whole entry): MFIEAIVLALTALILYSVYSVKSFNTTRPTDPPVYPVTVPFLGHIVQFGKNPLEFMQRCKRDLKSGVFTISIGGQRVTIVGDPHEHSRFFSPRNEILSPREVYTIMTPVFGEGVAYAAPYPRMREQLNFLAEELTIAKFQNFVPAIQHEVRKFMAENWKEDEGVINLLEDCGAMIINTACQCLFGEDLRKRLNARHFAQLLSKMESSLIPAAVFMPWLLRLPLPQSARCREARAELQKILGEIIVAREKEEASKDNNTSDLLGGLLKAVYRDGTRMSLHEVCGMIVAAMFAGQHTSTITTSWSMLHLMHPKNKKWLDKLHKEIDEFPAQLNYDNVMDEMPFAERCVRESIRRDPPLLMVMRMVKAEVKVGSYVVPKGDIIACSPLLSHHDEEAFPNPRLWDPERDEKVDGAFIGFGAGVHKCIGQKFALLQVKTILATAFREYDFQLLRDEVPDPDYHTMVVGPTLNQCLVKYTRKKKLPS

For the compound `COc1cc(F)ccc1-c1c(C)[nH]c2nc(N)nc(C)c12` [Compound 2, 5-(4-Fluoro-2-methoxyphenyl)-4,6-dimethyl-7H-pyrrolo[2,3-d]pyrimidin-2-amine], the EC50 is more than 50 µM with Vero host cells (read-out: Vero EC50) and more than 50.1 µM in the series with Vero host cells (setting [5]). The compound further displayed an IC50 against T. cruzi CYP51 of more than 100 µM. Besides, the chromatographic logD in series [1] is 3.4. Besides, the Cl int human in series [2] worked out at 0.6 ml/min/g liver. The half-life at 0.5 μM in series [2] came to 1.6 h. Further, the “No. cured/ no. tested” value in series [3] (50 mg/kg bid oral, 10 days) was 2 of the 6 and 2/6; in series [3] (50 mg/kg bid oral, 21 days) it was 2/6; in series [3] (100 mg/kg bid oral, 10 days (changed to once daily after day 1)), 2/4. Moreover, in series [3] (100 mg/kg bid, after first day of treatment), the “toxicity in infected mice” value is “two mice were culled due to toxicity”. Moreover, the “relapse day after the end of treatment” value in series [4] stood at 14 days.
Regarding `O=C(Cn1ccnc1[N+](=O)[O-])NCc1ccccc1` [Benznidazole, reference compound], the results for the EC50 in the series with Vero host cells (read-out: Vero EC50) and in the series with Vero host cells (setting [5]) were more than 50 µM and more than 50.1 µM, respectively. Moreover, in series [1], the chromatographic logD turned out to be 2.3. The “No. cured/ no. tested” value was 3/3 in series [3] (100 mg/kg qd oral, 10 days) and 6/6 in series [3] (100 mg/kg qd oral, 20 days). Moreover, the “relapse day after the end of treatment” value in series [4] is recorded as 14 days. Besides, in series [4] (ten-day treatment), the “relapse day after compound washout” value is on record as “no relapse”.
`COc1ccc(-c2c(C)[nH]c3nc(N)nc(C)c23)c(OC)c1` [Compound 4, 5-(2,4-Dimethoxyphenyl)-4,6-dimethyl-7H-pyrrolo[2,3-d]pyrimidin-2-amine]: in the series on Vero host cells (read-out: Vero EC50), the EC50 was more than 50 µM. The EC50 in the series on Vero host cells (setting [5]) was more than 50.1 µM. The half-inhibitory concentration (IC50) against T. cruzi CYP51 was more than 100 µM. Also, the chromatographic logD in series [1] came out at 3.1. For the same compound, in series [2], the Cl int human is 0.8 ml/min/g liver and the half-life at 0.5 μM came out at 1.1 h.
For the compound `COc1cc(Cl)ccc1-c1c(C)[nH]c2nc(N)nc(C)c12` [Compound 3, 5-(4-Chloro-2-methoxyphenyl)-4,6-dimethyl-7H-pyrrolo[2,3-d]pyrimidin-2-amine], the EC50 is more than 50 µM with Vero host cells (read-out: Vero EC50) and more than 50.1 µM in the series with Vero host cells (setting [5]). At T. cruzi CYP51, this compound registered an IC50 of more than 100 µM. For the same compound, the chromatographic logD in series [1] came out at 4.2. The compound further had a Cl int human in series [2] of 0.4 ml/min/g liver. Also, in series [2], the half-life at 0.5 μM is more than 2.32 h. In addition, the “No. cured/ no. tested” value is listed as 4/6 in series [3] (50 mg/kg bid oral, 10 days) and 2/6 in series [3] (50 mg/kg bid oral, 20 days (changed to 11 bid + 9 qd)). Also, the “tolerability in infected mice” value in series [3] (50 mg/kg bid, 20-day regimen) is given as “tolerability issues”. Also, in series [4], the “relapse day after the end of treatment” value is 14 days.

The values above are taken from publication PMC7615676, “Short-course combination treatment for experimental chronic Chagas disease” (Science translational medicine, 2023).
